Experiments:
Proteus vulgaris = assay: Agar diffusion test, Proteus vulgaris; assay type: cell-based; conditions: 0: no inhibition action
Method: (§1) DST agar was inoculated with 1 drop of a Muller-Hinton broth of the test organisms, diluted 1 : 10. After a prediffusion period of 2 hours at 22° C., the paper filters which had been soaked with solutions of active substance of various concentrations were placed on the agar. The inhibition zones (distance of the cloudy area from the edge of the paper filter in mm) were determined after an incubation time of 24 hours.

Daphnia = assay: EC50 in Daphnia (DIN 38412, Part 12); assay type: in vivo
From the text: **Determination in accordance with DIN 38412, Part 12.

bacteria and fungi = conditions: prior art; cited from earlier work
Lentinus lepideus = assay: Filter disk test, Lentinus lepideus; assay type: cell-based; conditions: 3 weeks, +30° C.
Method: (§2) The inhibition action against fungi, of the products according to the invention, was tested using the "filter disk test" (cf. Table 2). For this purpose, paper filter disks (.phi. 5.5 cm) were soaked in ethanolic solutions containing various amounts of active substance. After the filters had dried under room conditions, they were placed on Petri dishes containing plate-count agar which had been inoculated with a spore suspension. The nutrient medium used was biomalt agar 8° Bg, and the dishes were incubated for 3 weeks at +30° C. Thereafter, the sizes of the inhibition zones (distance of the fungal growth from the edge of the filter, in mm) around the samples were determined.

Poria monticola = assay: Filter disk test, Poria monticola; assay type: cell-based; conditions: 3 weeks, +30° C.
Method: as §2

Staphilococcus aureaus = assay: Agar diffusion test, Staphilococcus aureaus; assay type: cell-based; conditions: 0: no inhibition action
Method: as §1

Escherichia coli = assay: Agar diffusion test, Escherichia coli; assay type: cell-based; conditions: 0: no inhibition action
Method: as §1

rats = assay: LD50 oral (rats); assay type: in vivo
Bacillus subtilis = assay: Agar diffusion test, Bacillus subtilis; assay type: cell-based; conditions: 0: no inhibition action
Method: as §1

Cladosporum herbarum = assay: Filter disk test, Cladosporum herbarum; assay type: cell-based; conditions: 3 weeks, +30° C.
Method: as §2

[1] = Weight loss (release) on storage, 6 days at 65° C.; assay type: physicochemical
Method: As shown by the comparison above, the amount released into the environment during a storage period of 6 days at 65° C. of, for example, TBT-HDO, is nearly six times higher than in the case of DBT-HDO according to the invention.

Orfes = assay: EC50 in Orfes (DIN 38412, Part 15); assay type: in vivo
From the text: *Determination in accordance with DIN 38412, Part 15

Paecilomyces varioti = assay: Filter disk test, Paecilomyces varioti; assay type: cell-based; conditions: 3 weeks, +30° C.
Method: as §2

[2] = 0.1% active substance in soaking solution
[3] = 0.3% active substance in soaking solution
[4] = 0.5% active substance in soaking solution

CCC[CH2][Sn]([CH2]CCC)([CH2]CCC)[O]N(N=O)C1CCCCC1 [TBT-HDO]
inhibition zone (Proteus vulgaris; [2]): 6 mm
inhibition zone (Proteus vulgaris; [3]): 7 mm
inhibition zone (Proteus vulgaris; [4]): 7 mm
EC50 in Daphnia (Daphnia): 0.020 mg/l of water
biocidal activity (bacteria and fungi): very good biocidal activity
inhibition zone (IZ) (Lentinus lepideus; 0.5% content of the solution): > 15 mm
inhibition zone (IZ) (Lentinus lepideus; 1% content of the solution): > 15 mm
inhibition zone (IZ) (Lentinus lepideus; 2% content of the solution): > 15 mm
inhibition zone (IZ) (Poria monticola; 0.5% content of the solution): 7-9 mm
inhibition zone (IZ) (Poria monticola; 1% content of the solution): 15 mm
inhibition zone (IZ) (Poria monticola; 2% content of the solution): 15 mm
inhibition zone (Staphilococcus aureaus; [2]): 28 mm
inhibition zone (Staphilococcus aureaus; [3]): 32 mm
inhibition zone (Staphilococcus aureaus; [4]): 24 mm
inhibition zone (Escherichia coli; [2]): 0 mm
inhibition zone (Escherichia coli; [3]): 0 mm
inhibition zone (Escherichia coli; [4]): 0 mm
LD50 oral (rats) (rats): 63 mg/kg of body wt.
inhibition zone (Bacillus subtilis; [2]): 17 mm
inhibition zone (Bacillus subtilis; [3]): 22 mm
inhibition zone (Bacillus subtilis; [4]): 18 mm
inhibition zone (IZ) (Cladosporum herbarum; 0.5% content of the solution): 10-12 mm
inhibition zone (IZ) (Cladosporum herbarum; 1% content of the solution): > 15 mm
inhibition zone (IZ) (Cladosporum herbarum; 2% content of the solution): > 15 mm
Weight loss ([1]; 6 days 65° C.): 12.8%
amount released into the environment, times higher than DBT-HDO ([1]; storage 6 days at 65° C., TBT-HDO vs DBT-HDO): six
EC50 in Orfes (Orfes): 0.035 mg/l of water
inhibition zone (IZ) (Paecilomyces varioti; 0.5% content of the solution): 10-12 mm
inhibition zone (IZ) (Paecilomyces varioti; 1% content of the solution): > 15 mm
inhibition zone (IZ) (Paecilomyces varioti; 2% content of the solution): > 15 mm
